Experiment [1] concerns the target T1, GPR17 (Homo sapiens, UniProt Q13304). The conditions noted are these: WO 2005/103291; cited from earlier work.
Target sequence in this assay (Q13304 whole entry, species assumed): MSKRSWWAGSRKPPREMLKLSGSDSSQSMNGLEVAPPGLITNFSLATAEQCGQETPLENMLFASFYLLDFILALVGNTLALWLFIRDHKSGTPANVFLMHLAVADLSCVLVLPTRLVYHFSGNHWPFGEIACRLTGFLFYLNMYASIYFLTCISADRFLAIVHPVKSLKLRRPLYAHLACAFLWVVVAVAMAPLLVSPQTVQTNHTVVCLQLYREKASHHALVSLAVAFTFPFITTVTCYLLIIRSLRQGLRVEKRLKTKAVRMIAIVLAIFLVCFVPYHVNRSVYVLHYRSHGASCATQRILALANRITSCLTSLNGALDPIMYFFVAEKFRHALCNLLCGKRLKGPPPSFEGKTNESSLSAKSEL
The target in experiment [2] is T1, GPR17. In words: Calcium mobilization functional assay (Ca2+ assay) in CHO hGPR17 cells. Type of experiment: cell-based. The arrangement: host or cells: Flp-In T-REx CHO cells, expression induced with doxycycline. The conditions noted are these: inhibition of 50 nM MDL29,951 (GPR17 agonist), activity range, read-out: Ca^2+ assay pIC50 (converted). The method, then: (§1) Flp-In T-REx CHO cells stably expressing human GPR17 receptor (CHO hGPR17) from Evi Kostenis' lab (Bonn University, Germany) were cultured at 37° C. in a humidified atmosphere of 5% CO2. Cells were grown in DMEM with Nutrient Mixture F-12 supplemented with hygromycin B (500 μg/ml) and blasticidin (30 μg/ml). Expression from the Flp-In locus was induced by treatment with doxycycline (1 μg/ml) for 16-20 h prior assays.
GPR17 is a G-protein coupled receptor. GPR17 activation triggers Gq-type G-protein signaling resulting in endoplasmic reticulum calcium (Ca^2+) stores release in cytosol which can be measured using Calcium 5 dye, a fluorescent indicator dye of cytosolic Ca^2+ levels. The compounds of the present invention were assessed either in the Ca^2+ assay or in the GPR17 cAMP assay, described further below.
CHO hGPR17 were defrosted and seeded at a density of 20,000 cells per well into black 384-well plates with clear bottom. Cells were incubated overnight at 37° C. in a humidified atmosphere of 5% CO2. Sixteen to twenty hours after seeding, CHO hGPR17 were loaded for 60 min with Calcium 5 dye, a cytosolic Ca^2+ indicator fluorescent dye, according to manufacturer's instructions. Fluorescent signal relative to cytosolic Ca^2+ concentration was recorded over time at room temperature in FLIPR Tetra reader. Cells were first incubated for 30 minutes at room temperature in HBSS Hepes buffer pH 7.4 containing increasing concentrations of test compounds (typically 10^−11 M to 10^−6M). Then, 50 nM MDL29,951, a GPR17 agonist, was added to the cells. Inhibitory effects of varying concentrations test compounds were measured and resulting pIC50S were determined. All incubations were performed in duplicate and results were compared to a concentration response curve of GPR17 agonist and antagonist reference compounds. Analysis and curve fitting were performed in ActivityBase XE using XLfit 4-parameter logistic equation y=A+((B−A)/(1+((C/x)^D))) where A, B, C and D stand for minimum y, maximum y, IC50 and slope, respectively.
The activities of the Example compounds tested are depicted in the table 6 in Section B-IIB below. The activity ranges A, B and C refer to pIC50 values in the Ca^2+ assay as follows: “A”: pIC50 6.5≤x<7.5, “B”: pIC50 7.5≤x<8.5, “C”: 8.5≤pIC50
On the technique in general: A change in cytosolic calcium serves as a functional read-out for many receptors and channels.
Target sequence in this assay (Q13304 29-367 limits assumed): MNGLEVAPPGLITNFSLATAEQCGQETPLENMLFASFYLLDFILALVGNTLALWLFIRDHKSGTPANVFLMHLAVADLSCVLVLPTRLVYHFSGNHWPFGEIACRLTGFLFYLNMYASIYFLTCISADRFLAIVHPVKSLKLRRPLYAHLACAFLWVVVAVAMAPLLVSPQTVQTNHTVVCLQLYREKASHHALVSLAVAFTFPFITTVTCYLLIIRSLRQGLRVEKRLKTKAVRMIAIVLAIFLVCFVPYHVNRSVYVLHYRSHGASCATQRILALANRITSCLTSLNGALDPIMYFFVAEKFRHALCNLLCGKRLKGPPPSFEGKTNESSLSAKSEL

The target in experiment [3] is T1, GPR17. The experiment is described as follows: cAMP accumulation functional assay (HTRF) in CHO hGPR17 cells. More on the design: host or cells: Flp-In T-REx CHO cells, expression induced with doxycycline. The conditions noted are these: Schild analysis against MDL29,951, 5 μM forskolin, activity range, read-out: cAMP assay pA2 (converted). Type of experiment: cell-based. The method, then:
as §1
Target sequence in this assay (Q13304 29-367 limits assumed): as above
GPR17 activation can also recruit Gi-type G-protein signaling, resulting in a decrease of intracellular cyclic adenosine monophosphate (cAMP). Intracellular cAMP changes can be measured using the HTRF cAMP dynamic assay kit from CisBio (Codolet, France). Using homogenous time-resolved fluorescence technology (HTRF), the assay is based on competition between native cAMP produced by cells and cAMP labelled with the dye d2. The tracer binding was determined by an anti-cAMP antibody labeled with cryptate.
CHO hGPR17 were detached with PBS containing EDTA and dispatched in black 384-well plates with 5,000 cells per well. Cells were first incubated for 30 minutes at room temperature in HBSS Hepes (pH 7.4) containing vehicle or varying concentrations of test GPR17 antagonist/inverse agonist compounds. Then, a dose response curve of MDL29,951 GPR17 agonist (typically from 10^−5M to 10^−10M) was added on vehicle and on each test GPR17 antagonist/inverse agonist compound concentration in a final volume of 20 μL HBSS Hepes buffer (pH 7.4) containing 1% DMSO, 5 μM forskolin and 0.1 mM IBMX. After 60 minutes incubation at room temperature, the reaction is terminated and the cells lysed by adding the d2 detection reagent and the cryptate reagent in 10 μL lysis buffer each according to manufacturer's instructions. After 60 minutes incubation, changes in cAMP concentrations are measured according to manufacturer's instructions using an Envision plate reader with laser excitation. All incubations were performed in duplicate. Data was analyzed using GraphPad Prism software using the 4-parameter logistic equation to measure MDL29,951 pEC50s in absence and presence of GPR17 antagonist/inverse agonist test compounds. Dose ratio (DR) were plotted against antagonist concentrations and Schild analysis provided estimated affinity pA2 of GPR17 antagonist/inverse agonist test compounds.
The activities of the Example compounds tested are depicted in the table below. The activity ranges A, B and C refer to pA2 values in the cAMP assay as follows: “A”: pA2 6.5≤x<7.5, “B”: pA2 7.5≤x<8.5, “C”: 8.5≤pA2.
Background: cAMP levels reflect the balance of adenylyl cyclase and phosphodiesterase activity.

The structures appear in SMILES notation.

For `NCC(=O)CCC(=O)O` [Example 5-ALA, 5 amino levulinic acid], the “amounts needed in the assays (GPR17 activating ligand)” value on GPR17 [1] was “three digit micromolar range”.
Turning to `O=S(=O)(Nc1cc(F)c(Cl)nc1F)c1c[nH]c2cc(Cl)ccc12` [Example I-2, 6-chloro-N-(6-chloro-2,5-difluoropyridin-3-yl)-1H-indole-3-sulfonamide], at GPR17 [2], the IC50 was ≤ 3.16 nM. The Kb at GPR17 [3] is 3.16 to 31.6 nM.
On the same counts, the results for `COc1nc(Cl)c(F)cc1NS(=O)(=O)c1c[nH]c2cc(Cl)ccc12` [Example I-3, 6-chloro-N-(6-chloro-5-fluoro-2-methoxypyridin-3-yl)-1H-indole-3-sulfonamide] are 3.16 to 31.6 nM and ≤ 3.16 nM.
The matching figures for `COc1nc(F)c(NS(=O)(=O)c2c[nH]c3cc(Cl)ccc23)cc1F` [Example I-5, 6-chloro-N-(2,5-difluoro-6-methoxypyridin-3-yl)-1H-indole-3-sulfonamide]: 3.16 to 31.6 nM and 3.16 to 31.6 nM.
The matching figures for `COc1nc(OC)c(NS(=O)(=O)c2c[nH]c3cc(Cl)ccc23)cc1F` [Example I-6, 6-chloro-N-(5-fluoro-2,6-dimethoxypyridin-3-yl)-1H-indole-3-sulfonamide]: ≤ 3.16 nM and ≤ 3.16 nM.
Turning to `Cc1nc(F)c(NS(=O)(=O)c2c[nH]c3cc(Cl)ccc23)cc1F` [Example I-7, 6-chloro-N-(2,5-difluoro-6-methylpyridin-3-yl)-1H-indole-3-sulfonamide], on GPR17 [2], the IC50 is 3.16 to 31.6 nM. The Kb at GPR17 [3] is 3.16 to 31.6 nM.
For the compound `COc1nc(Br)cnc1NS(=O)(=O)c1c[nH]c2cc(Cl)ccc12` [Example I-10, N-(5-bromo-3-methoxypyrazin-2-yl)-6-chloro-1H-indole-3-sulfonamide], the IC50 on GPR17 [2] is ≤ 3.16 nM. For the same compound, the Kb on GPR17 [3] was ≤ 3.16 nM.
In the case of `COc1ccc(NS(=O)(=O)c2c[nH]c3cc(Cl)ccc23)cn1` [Example I-15, 6-chloro-N-(6-methoxypyridin-3-yl)-1H-indole-3-sulfonamide], on GPR17 [2], the IC50 is 31.6 to 316 nM. Also, the Kb on GPR17 [3] is 31.6 to 316 nM.
`O=S(=O)(Nc1cnc(Br)cn1)c1c[nH]c2cc(Cl)ccc12` [Example I-18, N-(5-bromopyrazin-2-yl)-6-chloro-1H-indole-3-sulfonamide]: the IC50 at GPR17 [2] is 31.6 to 316 nM. For the same compound, on GPR17 [3], the Kb is 31.6 to 316 nM.
Take `O=S(=O)(Nc1ccc(Br)nc1)c1c[nH]c2cc(Cl)ccc12` [Example I-20, N-(6-bromopyridin-3-yl)-6-chloro-1H-indole-3-sulfonamide]: the IC50 at GPR17 [2] is 31.6 to 316 nM.
On to `O=S(=O)(Nc1ccc(I)nc1)c1c[nH]c2cc(Cl)ccc12` [Example I-21, 6-chloro-N-(6-iodopyridin-3-yl)-1H-indole-3-sulfonamide], for which the IC50 on GPR17 [2] is 31.6 to 316 nM. Also, the Kb at GPR17 [3] is 3.16 to 31.6 nM.
On to `O=S(=O)(Nc1cnc(Cl)c(F)c1)c1c[nH]c2cc(Cl)ccc12` [Example I-23, 6-chloro-N-(6-chloro-5-fluoropyridin-3-yl)-1H-indole-3-sulfonamide], for which the IC50 at GPR17 [2] is 31.6 to 316 nM.
In the case of `O=S(=O)(Nc1ccc(Cl)nc1)c1c[nH]c2cc(Cl)ccc12` [Example I-24, 6-chloro-N-(6-chloropyridin-3-yl)-1H-indole-3-sulfonamide], the IC50 at GPR17 [2] was 31.6 to 316 nM.
Turning to `O=S(=O)(Nc1cnc(Cl)cc1F)c1c[nH]c2cc(Cl)ccc12` [Example I-25, 6-chloro-N-(6-chloro-4-fluoropyridin-3-yl)-1H-indole-3-sulfonamide], on GPR17 [2], the IC50 is 3.16 to 31.6 nM. Further, at GPR17 [3], the Kb was ≤ 3.16 nM.
Regarding `COc1nc(Cl)c(F)cc1NS(=O)(=O)c1c[nH]c2nc(Cl)ccc12` [Example I-32, 6-chloro-N-(6-chloro-5-fluoro-2-methoxypyridin-3-yl)-1H-pyrrolo[2,3-b]pyridine-3-sulfonamide], at GPR17 [2], the IC50 is ≤ 3.16 nM. For the same compound, the Kb on GPR17 [3] is ≤ 3.16 nM.
Consider `COc1nc(F)c(NS(=O)(=O)c2c[nH]c3nc(Cl)ccc23)cc1F` [Example I-33, 6-chloro-N-(2,5-difluoro-6-methoxypyridin-3-yl)-1H-pyrrolo[2,3-b]pyridine-3-sulfonamide], for which the IC50 on GPR17 [2] is 31.6 to 316 nM. Also, the Kb on GPR17 [3] was 31.6 to 316 nM.
Turning to `COc1nc(OC)c(NS(=O)(=O)c2c[nH]c3nc(Cl)ccc23)cc1F` [Example I-34, 6-chloro-N-(5-fluoro-2,6-dimethoxypyridin-3-yl)-1H-pyrrolo[2,3-b]pyridine-3-sulfonamide], the IC50 on GPR17 [2] was 3.16 to 31.6 nM. Also, the Kb on GPR17 [3] is 3.16 to 31.6 nM.
As for `COc1ccc(NS(=O)(=O)c2c[nH]c3c2ccc2ccccc23)c(OC)n1` [Example I-70, N-(2,6-dimethoxypyridin-3-yl)-1H-benzo[g]indole-3-sulfonamide], the IC50 at GPR17 [2] is 31.6 to 316 nM.
For the compound `NCc1[nH]cc(CCC(=O)O)c1CC(=O)O` [PBG, porphobilinogen], the “amounts needed in the assays (GPR17 activating ligand)” value on GPR17 [1] is reported as “mM range”.

Source of the values: patent US11939319B2, “Pyridinyl and pyrazinyl-(asa)indolsulfonamides” (UCB Pharma GmbH, priority 2018, dated 2024).
